Measured values reported in ChEMBL document CHEMBL1147830, “Isoquinoline-pyridine-based protein kinase B/Akt antagonists: SAR and in vivo antitumor activity” (Bioorg Med Chem Lett, 2006).
pIC50: −log10 of the molar value.

Columns and labels:
[1] = molecular target: RAC-beta serine/threonine-protein kinase (Homo sapiens, UniProt P31751); assay: Inhibition of Akt2 at 5 uM ATP
[2] = molecular target: RAC-gamma serine/threonine-protein kinase (Homo sapiens, UniProt Q9Y243); assay: Inhibition of Akt3 at 5 uM ATP
[3] = molecular target: cAMP-dependent protein kinase (PKA) (Homo sapiens, UniProt P22694+P17612+P22612); assay: Inhibition of PKA at 5 uM ATP; assay type: protein assay
[4] = molecular target: Protein kinase C gamma type (Homo sapiens, UniProt P05129); assay: Inhibition of PKC gamma at 5 uM ATP
[5] = molecular target: T1, Protein kinase C epsilon type (Homo sapiens, UniProt Q02156); assay: Inhibition of PKC epsilon at 5 uM ATP
T1 sequence (Q02156 whole entry): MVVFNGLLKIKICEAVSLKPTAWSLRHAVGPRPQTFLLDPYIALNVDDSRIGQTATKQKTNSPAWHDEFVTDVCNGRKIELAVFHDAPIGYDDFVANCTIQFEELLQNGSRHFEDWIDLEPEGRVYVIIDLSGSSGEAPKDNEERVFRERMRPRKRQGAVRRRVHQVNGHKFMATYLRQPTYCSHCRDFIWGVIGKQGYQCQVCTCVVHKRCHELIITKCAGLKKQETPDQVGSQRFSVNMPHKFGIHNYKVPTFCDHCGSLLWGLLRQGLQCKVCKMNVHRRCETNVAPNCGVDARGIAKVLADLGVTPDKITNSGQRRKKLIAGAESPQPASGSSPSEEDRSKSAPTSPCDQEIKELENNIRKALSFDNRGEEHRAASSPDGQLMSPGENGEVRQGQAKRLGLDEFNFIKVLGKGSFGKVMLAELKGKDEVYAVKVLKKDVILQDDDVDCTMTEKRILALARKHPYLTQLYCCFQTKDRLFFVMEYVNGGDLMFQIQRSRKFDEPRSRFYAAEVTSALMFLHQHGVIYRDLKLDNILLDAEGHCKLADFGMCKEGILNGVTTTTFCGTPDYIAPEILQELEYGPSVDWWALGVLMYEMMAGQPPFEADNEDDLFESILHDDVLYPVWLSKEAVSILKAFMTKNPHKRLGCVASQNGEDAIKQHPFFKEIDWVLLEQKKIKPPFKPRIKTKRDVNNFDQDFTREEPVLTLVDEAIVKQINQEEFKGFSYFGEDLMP

[6] = molecular target: Cyclin-dependent kinase 1 (Homo sapiens, UniProt P06493); assay: Inhibition of CDK1 at 5 uM ATP
[7] = molecular target: Mitogen-activated protein kinase 1 (Homo sapiens, UniProt P28482); assay: Inhibition of ERK2 at 5 uM ATP
Casein kinase II = Casein kinase II (Homo sapiens, UniProt P19784+P67870+P68400); assay: Inhibition of CK2 at 5 uM ATP; assay type: protein-complex assay
[8] = molecular target: Proto-oncogene tyrosine-protein kinase Src (Homo sapiens, UniProt P12931); assay: Inhibition of SRC at 5 uM ATP
MIA PaCa-2 = assay: Antiproliferative activity against human MiaPaCa2 cells by MTT assay; assay type: functional, cell-based
[9] = Half life in CD1 mouse at 3 mg/kg, iv; assay type: ADME, organism-based; set-up: dose 3 mg/kg, route intravenous; details: in vivo
[10] = Volume of distribution in CD1 mouse at 3 mg/kg, iv or 10 mg/kg, po or 30 mg, sc; assay type: ADME, organism-based; details: in vivo, read-out: Vdss
[11] = Clearance in CD1 mouse at 3 mg/kg, iv or 10 mg/kg, po or 30 mg, sc; assay type: ADME, organism-based; set-up: unit not given here; details: in vivo
[12] = AUC in CD1 mouse at 10 mg/kg, po; assay type: ADME, organism-based; set-up: dose 10 mg/kg, route oral; details: plasma
[13] = Bioavailability in CD1 mouse at 10 mg/kg, po; assay type: ADME, organism-based; details: in vivo
[14] = molecular target: RAC-alpha serine/threonine-protein kinase (Homo sapiens, UniProt P31749); assay: Inhibition of GSK3 phosphorylation; assay type: functional
[15] = AUC in CD1 mouse at 30 mg, sc; assay type: ADME, organism-based; details: plasma
[16] = Antiproliferative activity against mouse FL5.12 cells overexpressing Akt1 by MTT assay

Chain of RAC-beta serine/threonine-protein kinase (P31751 whole entry): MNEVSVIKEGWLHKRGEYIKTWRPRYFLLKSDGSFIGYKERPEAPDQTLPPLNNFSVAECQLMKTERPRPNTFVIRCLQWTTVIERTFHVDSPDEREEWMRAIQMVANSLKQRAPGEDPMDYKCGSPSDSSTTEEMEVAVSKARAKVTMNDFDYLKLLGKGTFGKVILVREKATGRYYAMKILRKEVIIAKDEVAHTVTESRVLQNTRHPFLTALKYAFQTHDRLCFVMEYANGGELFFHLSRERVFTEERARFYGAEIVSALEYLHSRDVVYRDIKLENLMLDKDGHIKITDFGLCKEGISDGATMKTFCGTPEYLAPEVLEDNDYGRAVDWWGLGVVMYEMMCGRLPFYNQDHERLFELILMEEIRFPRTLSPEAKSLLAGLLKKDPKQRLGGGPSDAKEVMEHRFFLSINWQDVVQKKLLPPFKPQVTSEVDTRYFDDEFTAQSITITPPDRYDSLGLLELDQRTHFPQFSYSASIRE
Chain of Mitogen-activated protein kinase 1 (P28482 whole entry): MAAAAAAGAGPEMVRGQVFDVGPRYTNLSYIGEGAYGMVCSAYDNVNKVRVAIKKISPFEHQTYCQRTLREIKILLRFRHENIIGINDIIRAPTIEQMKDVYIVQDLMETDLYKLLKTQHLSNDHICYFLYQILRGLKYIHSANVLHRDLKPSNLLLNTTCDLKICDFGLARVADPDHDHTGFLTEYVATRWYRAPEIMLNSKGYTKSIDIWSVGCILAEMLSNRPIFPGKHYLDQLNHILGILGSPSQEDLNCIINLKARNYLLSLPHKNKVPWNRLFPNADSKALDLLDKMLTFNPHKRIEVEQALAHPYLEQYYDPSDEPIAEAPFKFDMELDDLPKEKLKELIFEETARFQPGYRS
Chain of RAC-alpha serine/threonine-protein kinase (P31749 whole entry): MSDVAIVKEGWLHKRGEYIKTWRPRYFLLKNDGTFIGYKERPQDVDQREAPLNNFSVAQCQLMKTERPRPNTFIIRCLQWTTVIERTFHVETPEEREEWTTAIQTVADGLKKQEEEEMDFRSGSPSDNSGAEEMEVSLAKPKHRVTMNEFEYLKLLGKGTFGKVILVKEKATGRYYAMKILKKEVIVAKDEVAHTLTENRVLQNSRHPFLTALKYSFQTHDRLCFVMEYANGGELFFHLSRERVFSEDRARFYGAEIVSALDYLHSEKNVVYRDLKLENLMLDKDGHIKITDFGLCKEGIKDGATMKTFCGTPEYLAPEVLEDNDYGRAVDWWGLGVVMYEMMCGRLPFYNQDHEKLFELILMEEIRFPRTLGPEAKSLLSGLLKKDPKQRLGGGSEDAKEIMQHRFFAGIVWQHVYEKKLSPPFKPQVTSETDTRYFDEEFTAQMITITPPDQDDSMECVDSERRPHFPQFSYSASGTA
Chain of Proto-oncogene tyrosine-protein kinase Src (P12931 2-536 limits assumed): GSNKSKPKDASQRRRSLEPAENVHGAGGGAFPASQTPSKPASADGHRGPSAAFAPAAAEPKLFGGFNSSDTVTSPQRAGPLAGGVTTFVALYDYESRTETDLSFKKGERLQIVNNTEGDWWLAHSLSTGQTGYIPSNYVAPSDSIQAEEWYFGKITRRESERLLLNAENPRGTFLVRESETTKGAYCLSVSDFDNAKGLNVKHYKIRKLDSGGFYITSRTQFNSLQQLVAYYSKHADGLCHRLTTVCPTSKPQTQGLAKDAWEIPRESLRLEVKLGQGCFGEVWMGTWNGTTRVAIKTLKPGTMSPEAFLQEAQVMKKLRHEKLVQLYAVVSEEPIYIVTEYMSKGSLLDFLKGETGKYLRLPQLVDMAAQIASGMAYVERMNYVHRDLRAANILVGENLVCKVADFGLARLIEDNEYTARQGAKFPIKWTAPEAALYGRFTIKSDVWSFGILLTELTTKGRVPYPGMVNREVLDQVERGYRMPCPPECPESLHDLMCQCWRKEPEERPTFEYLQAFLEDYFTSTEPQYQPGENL
Chain of Cyclin-dependent kinase 1 (P06493 whole entry): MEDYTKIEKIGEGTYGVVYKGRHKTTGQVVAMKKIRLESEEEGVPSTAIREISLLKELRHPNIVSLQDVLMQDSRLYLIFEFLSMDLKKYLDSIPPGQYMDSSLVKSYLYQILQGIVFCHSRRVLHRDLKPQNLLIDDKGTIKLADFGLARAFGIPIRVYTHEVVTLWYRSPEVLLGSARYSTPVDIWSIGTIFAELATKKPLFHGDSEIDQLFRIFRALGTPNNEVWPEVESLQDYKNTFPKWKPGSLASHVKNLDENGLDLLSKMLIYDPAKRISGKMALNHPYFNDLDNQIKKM
Chain of Casein kinase II (P67870 whole entry): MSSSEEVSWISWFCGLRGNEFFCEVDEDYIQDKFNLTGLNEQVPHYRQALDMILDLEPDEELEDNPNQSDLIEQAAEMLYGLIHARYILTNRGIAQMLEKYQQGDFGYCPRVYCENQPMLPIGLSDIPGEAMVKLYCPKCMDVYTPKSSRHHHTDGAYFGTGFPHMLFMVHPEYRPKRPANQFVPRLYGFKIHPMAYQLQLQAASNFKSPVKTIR
Chain of Casein kinase II (P68400 whole entry): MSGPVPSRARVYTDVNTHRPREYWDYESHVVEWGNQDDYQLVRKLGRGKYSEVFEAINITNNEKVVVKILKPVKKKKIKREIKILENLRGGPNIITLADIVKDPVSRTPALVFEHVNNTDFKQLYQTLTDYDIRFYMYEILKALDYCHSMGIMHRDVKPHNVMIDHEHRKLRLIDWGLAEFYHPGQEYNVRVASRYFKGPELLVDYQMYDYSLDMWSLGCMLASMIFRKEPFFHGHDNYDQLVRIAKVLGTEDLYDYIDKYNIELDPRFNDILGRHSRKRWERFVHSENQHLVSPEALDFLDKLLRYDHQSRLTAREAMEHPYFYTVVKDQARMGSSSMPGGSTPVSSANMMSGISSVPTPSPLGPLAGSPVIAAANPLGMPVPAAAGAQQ
Chain of Casein kinase II (P19784 whole entry): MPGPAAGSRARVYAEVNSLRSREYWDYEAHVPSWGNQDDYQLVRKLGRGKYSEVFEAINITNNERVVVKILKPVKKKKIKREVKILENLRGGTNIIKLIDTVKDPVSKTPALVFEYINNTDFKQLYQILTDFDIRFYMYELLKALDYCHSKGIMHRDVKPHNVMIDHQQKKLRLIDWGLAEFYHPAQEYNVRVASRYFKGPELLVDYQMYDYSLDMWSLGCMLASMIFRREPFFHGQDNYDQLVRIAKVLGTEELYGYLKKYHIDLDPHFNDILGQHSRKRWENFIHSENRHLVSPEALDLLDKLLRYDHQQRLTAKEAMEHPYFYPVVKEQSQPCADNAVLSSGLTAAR
Chain of RAC-gamma serine/threonine-protein kinase (Q9Y243 whole entry): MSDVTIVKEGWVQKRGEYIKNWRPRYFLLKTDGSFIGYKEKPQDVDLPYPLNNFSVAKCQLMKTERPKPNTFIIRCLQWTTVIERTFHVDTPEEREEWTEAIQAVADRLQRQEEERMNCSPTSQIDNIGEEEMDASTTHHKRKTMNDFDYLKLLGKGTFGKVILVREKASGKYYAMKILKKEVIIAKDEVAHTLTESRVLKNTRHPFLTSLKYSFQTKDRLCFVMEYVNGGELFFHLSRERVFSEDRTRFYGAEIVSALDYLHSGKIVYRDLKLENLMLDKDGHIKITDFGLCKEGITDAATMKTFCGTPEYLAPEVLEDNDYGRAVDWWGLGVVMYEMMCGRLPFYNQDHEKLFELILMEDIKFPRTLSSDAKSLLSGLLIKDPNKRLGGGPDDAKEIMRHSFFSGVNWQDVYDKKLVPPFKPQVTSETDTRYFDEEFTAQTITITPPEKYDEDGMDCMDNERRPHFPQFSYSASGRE

SMILES	pIC50 [1]	pIC50 [2]	IC50 [3] [nM]	pIC50 [4]	pIC50 [5]	pIC50 [6]	pIC50 [7]	pIC50 (Casein kinase II)	pIC50 [8]	pIC50 (MIA PaCa-2)	half-life [9] [h]	Vd [10] [L/kg]	clearance [11]	AUC [12] [ng·h/mL]	bioavailability [13] [%]	pIC50 [14]	AUC [15] [ng·h/mL]	pIC50 [16]
C#Cc1ncc(OC[C@@H](N)Cc2c[nH]c3ccccc23)cc1-c1ccc2cnccc2c1	8.30	7.41	1	6.59	5.05	5.31	4.57	< 4.30	< 4.30	4.97	–	–	–	–	–	–	–	–
N[C@H](COc1cncc(-c2ccc3c(Cl)nccc3c2)c1)Cc1c[nH]c2ccccc12	–	–	–	–	–	–	–	–	–	–	5	9.5	21.7	3900	51	–	–	–
Cc1cc(-c2cncc(OC[C@@H](N)Cc3c[nH]c4ccccc34)c2)cc2ccncc12	–	–	–	–	–	–	–	–	–	–	4.5	16.4	41.7	1500	35	–	–	–
N[C@H](COc1cncc(-c2ccc3cnc(F)cc3c2)c1)Cc1c[nH]c2ccccc12	–	–	48	–	–	5.47	–	–	4.74	5.50	–	–	–	–	–	–	–	–
Nc1cc2cc(-c3cncc(OC[C@@H](N)Cc4c[nH]c5ccccc45)c3)ccc2cn1	7.68	7.12	8	7.51	5.08	7.66	5.92	6.21	6.32	7.00	0.7	11.8	202	–	0	6.03	6900	–
N[C@H](COc1cncc(-c2ccc3cnc(Cl)cc3c2)c1)Cc1c[nH]c2ccccc12	–	–	–	–	–	–	–	–	–	–	2	15.5	90	910	27	–	–	–
N[C@H](COc1cnc(Cl)c(-c2ccc3cnccc3c2)c1)Cc1c[nH]c2ccccc12	8.30	7.14	5	6.27	< 5.30	6.06	4.43	4.90	4.92	4.88	–	–	–	–	–	5.52	–	–
N[C@H](COc1cncc(-c2ccc3cnccc3c2)c1)Cc1c[nH]c2ccccc12	–	–	–	–	5.21	–	–	–	5.70	–	0.3	7	–	–	0	5.82	7600	6.38
